Assay results as given in US20210205236A1, “THERAPEUTIC COMBINATIONS OF BOSWELLIA EXTRACT AND CANNABINOIDS” (priority 2018, published 2021).
Like-named read-outs stand apart in the source and are kept apart here.

Columns and labels:
CB1 receptor [1] = biological target: T1, CB1 receptor (Homo sapiens, UniProt P21554); format: cell-based; settings: for Conclusions: Is CB1R agonist effect observed? / Experiment 1 Fold change / Experiment 2 Fold change / Experiment 3 Fold change: alone or + THCA 10 μM or + THC 10 μM
T1 construct: expressed in transfected cells

CB1 receptor [2] = biological target: T1, CB1 receptor; test: cell-based; format: cell-based; settings: for Conclusions: Is CB1R antagonist effect observed? / activity at 5 µM / Experiment 1 Fold change / Experiment 2 Fold change / Experiment 3 Fold change / activity at 10 µM / activity at 25 µM / activity at 50 µM / activity at 100 µM: alone or + THCA 10 μM, CBD 1 μM or THC 10 μM; for activity at 5 µM / activity at 10 µM / activity at 25 µM / activity at 50 µM / activity at 100 µM: CP55940-induced activity = 100%; for Experiment 1 Fold change / Experiment 2 Fold change / Experiment 3 Fold change: Table 3 data re-expressed as fold change

T1 sequence (P21554 whole entry): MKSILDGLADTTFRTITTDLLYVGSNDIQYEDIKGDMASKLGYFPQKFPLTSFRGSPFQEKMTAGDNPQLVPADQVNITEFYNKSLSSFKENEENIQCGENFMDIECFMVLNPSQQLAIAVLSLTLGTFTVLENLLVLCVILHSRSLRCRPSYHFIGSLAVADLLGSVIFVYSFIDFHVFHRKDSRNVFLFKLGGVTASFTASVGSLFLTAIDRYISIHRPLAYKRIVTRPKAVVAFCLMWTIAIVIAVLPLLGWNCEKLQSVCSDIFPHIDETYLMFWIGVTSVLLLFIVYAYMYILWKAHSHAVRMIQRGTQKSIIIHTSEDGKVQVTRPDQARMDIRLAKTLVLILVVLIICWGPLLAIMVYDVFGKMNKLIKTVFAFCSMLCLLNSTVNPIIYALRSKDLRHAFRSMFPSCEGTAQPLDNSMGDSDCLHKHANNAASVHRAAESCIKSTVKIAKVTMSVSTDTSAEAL

CC(=O)O[C@@H]1CC[C@@]2(C)[C@@H](CC[C@]3(C)[C@@H]2C(=O)C=C2[C@@H]4[C@@H](C)[C@H](C)CC[C@]4(C)CC[C@]23C)[C@@]1(C)C(=O)O [AKBA, 3-O-acetyl-11-ketobeta-boswellic acid]
Conclusions: Is CB1R agonist effect observed? (CB1 receptor [1]; AKBA 5 μM): Negative (Only treatments that the mean of three consecutive independent experiments shows a positive result: CB1R activity ≥ 2.5-fold increase or ≥ 4-fold increase are considered CB1R agonists or CB1R positive allosteric modulators) | Experiment 1 Fold change (CB1 receptor [1]; AKBA 5 μM): 0.8 Fold change | Experiment 2 Fold change (CB1 receptor [1]; AKBA 5 μM): 0.8 Fold change | Experiment 3 Fold change (CB1 receptor [1]; AKBA 5 μM): 1.1 Fold change | Conclusions: Is CB1R agonist effect observed? (CB1 receptor [1]; AKBA 10 μM): Negative (Only treatments that the mean of three consecutive independent experiments shows a positive result: CB1R activity ≥ 2.5-fold increase or ≥ 4-fold increase are considered CB1R agonists or CB1R positive allosteric modulators) | Experiment 1 Fold change (CB1 receptor [1]; AKBA 10 μM): 1.0 Fold change | Experiment 2 Fold change (CB1 receptor [1]; AKBA 10 μM): 1.3 Fold change | Experiment 3 Fold change (CB1 receptor [1]; AKBA 10 μM): 0.9 Fold change | Experiment 1 Fold change (CB1 receptor [1]; AKBA 25 μM): 1.0 Fold change | Experiment 2 Fold change (CB1 receptor [1]; AKBA 25 μM): 1.1 Fold change | Experiment 3 Fold change (CB1 receptor [1]; AKBA 25 μM): 0.8 Fold change | Conclusions: Is CB1R agonist effect observed? (CB1 receptor [1]; AKBA 25 μM, cell 'Positive' wraps to 'Positive synergy'): Negative (Only treatments that the mean of three consecutive independent experiments shows a positive result: CB1R activity ≥ 2.5-fold increase or ≥ 4-fold increase are considered CB1R agonists or CB1R positive allosteric modulators) | Experiment 1 Fold change (CB1 receptor [1]; AKBA 50 μM): 1.3 Fold change | Experiment 2 Fold change (CB1 receptor [1]; AKBA 50 μM): 1.3 Fold change | Experiment 3 Fold change (CB1 receptor [1]; AKBA 50 μM): 0.7 Fold change | Conclusions: Is CB1R agonist effect observed? (CB1 receptor [1]; AKBA 50 μM, cell 'Positive' wraps to 'Positive synergy'): Negative (Only treatments that the mean of three consecutive independent experiments shows a positive result: CB1R activity ≥ 2.5-fold increase or ≥ 4-fold increase are considered CB1R agonists or CB1R positive allosteric modulators) | Experiment 1 Fold change (CB1 receptor [1]; AKBA 100 μM): 2.5 Fold change | Experiment 2 Fold change (CB1 receptor [1]; AKBA 100 μM): 1.1 Fold change | Experiment 3 Fold change (CB1 receptor [1]; AKBA 100 μM): 0.7 Fold change | Conclusions: Is CB1R agonist effect observed? (CB1 receptor [1]; AKBA 100 μM, cell 'Positive' wraps to 'Positive synergy'): Negative (Only treatments that the mean of three consecutive independent experiments shows a positive result: CB1R activity ≥ 2.5-fold increase or ≥ 4-fold increase are considered CB1R agonists or CB1R positive allosteric modulators) | CB1R agonistic activity (CB1 receptor [1]; AKBA 5-100 μM alone or + 10 μM THCA, any tested concentration, THC alone): did not show CB1R agonistic activity | EC50 (CB1 receptor [2]): 51.7 ± 13.6 µM | Positive allosteric CB1R effect on CP-55940 activity (CB1 receptor [2]): strong positive allosteric CB1R effect | Conclusions: Is CB1R antagonist effect observed? (CB1 receptor [2]; AKBA 5 μM, % of activity data): Negative (Only treatments that the mean of three consecutive independent experiments show a positive result (CB1R activity ≤ 50%) are considered antagonists of CB1R activity) | activity at 5 µM (CB1 receptor [2]; AKBA 5 μM, read-out: Experiment 1 % of activity): 130% | activity at 5 µM (CB1 receptor [2]; AKBA 5 μM, read-out: Experiment 2 % of activity): 123% | activity at 5 µM (CB1 receptor [2]; AKBA 5 μM, read-out: Experiment 3 % of activity): 103% | Experiment 1 Fold change (CB1 receptor [2]; AKBA 5 μM): 3.2 Fold change | Experiment 2 Fold change (CB1 receptor [2]; AKBA 5 μM): 3.1 Fold change | Experiment 3 Fold change (CB1 receptor [2]; AKBA 5 μM): 2.6 Fold change | Conclusions: Is CB1R antagonist effect observed? (CB1 receptor [2]; AKBA 5 μM, positive allosteric activity, fold change data): Negative (Only treatments that the mean of three consecutive independent experiments show a positive result (CB1R activity ≥ 4-fold change) are considered positive CB1R allosteric agonists) | Conclusions: Is CB1R antagonist effect observed? (CB1 receptor [2]; AKBA 10 μM, % of activity data): Negative (Only treatments that the mean of three consecutive independent experiments show a positive result (CB1R activity ≤ 50%) are considered antagonists of CB1R activity) | activity at 10 µM (CB1 receptor [2]; AKBA 10 μM, read-out: Experiment 1 % of activity): 136% | activity at 10 µM (CB1 receptor [2]; AKBA 10 μM, read-out: Experiment 2 % of activity): 114% | activity at 10 µM (CB1 receptor [2]; AKBA 10 μM, read-out: Experiment 3 % of activity): 96.4% | Experiment 1 Fold change (CB1 receptor [2]; AKBA 10 μM): 3.4 Fold change | Experiment 2 Fold change (CB1 receptor [2]; AKBA 10 μM): 2.8 Fold change | Experiment 3 Fold change (CB1 receptor [2]; AKBA 10 μM): 2.4 Fold change | Conclusions: Is CB1R antagonist effect observed? (CB1 receptor [2]; AKBA 10 μM, positive allosteric activity, fold change data): Negative (Only treatments that the mean of three consecutive independent experiments show a positive result (CB1R activity ≥ 4-fold change) are considered positive CB1R allosteric agonists) | Conclusions: Is CB1R antagonist effect observed? (CB1 receptor [2]; AKBA 25 μM, % of activity data): Allosterism (increase of the CB1R activity percentage (>150%) induced by CP55940) | activity at 25 µM (CB1 receptor [2]; AKBA 25 μM, read-out: Experiment 1 % of activity): 203% | activity at 25 µM (CB1 receptor [2]; AKBA 25 μM, read-out: Experiment 2 % of activity): 158% | activity at 25 µM (CB1 receptor [2]; AKBA 25 μM, read-out: Experiment 3 % of activity): 128% | Experiment 1 Fold change (CB1 receptor [2]; AKBA 25 μM): 5.1 Fold change | Experiment 2 Fold change (CB1 receptor [2]; AKBA 25 μM): 3.9 Fold change | Experiment 3 Fold change (CB1 receptor [2]; AKBA 25 μM): 3.2 Fold change | Conclusions: Is CB1R antagonist effect observed? (CB1 receptor [2]; AKBA 25 μM, positive allosteric activity, fold change data): Allosterism (An increase of the fold change ≥ 4-fold indicates CB1R positive allosteric agonistic activity) | Conclusions: Is CB1R antagonist effect observed? (CB1 receptor [2]; AKBA 50 μM, % of activity data): Allosterism (increase of the CB1R activity percentage (>150%) induced by CP55940) | activity at 50 µM (CB1 receptor [2]; AKBA 50 μM, read-out: Experiment 1 % of activity): 500% | activity at 50 µM (CB1 receptor [2]; AKBA 50 μM, read-out: Experiment 2 % of activity): 537% | activity at 50 µM (CB1 receptor [2]; AKBA 50 μM, read-out: Experiment 3 % of activity): 474% | Experiment 1 Fold change (CB1 receptor [2]; AKBA 50 μM): 12.5 Fold change | Experiment 2 Fold change (CB1 receptor [2]; AKBA 50 μM): 13.4 Fold change | Experiment 3 Fold change (CB1 receptor [2]; AKBA 50 μM): 11.9 Fold change | Conclusions: Is CB1R antagonist effect observed? (CB1 receptor [2]; AKBA 50 μM, positive allosteric activity, fold change data): Allosterism (An increase of the fold change ≥ 4-fold indicates CB1R positive allosteric agonistic activity) | Conclusions: Is CB1R antagonist effect observed? (CB1 receptor [2]; AKBA 100 μM, % of activity data): Allosterism (increase of the CB1R activity percentage (>150%) induced by CP55940) | activity at 100 µM (CB1 receptor [2]; AKBA 100 μM, read-out: Experiment 2 % of activity): 674% | activity at 100 µM (CB1 receptor [2]; AKBA 100 μM, read-out: Experiment 3 % of activity): 485% | Experiment 1 Fold change (CB1 receptor [2]; AKBA 100 μM): 25.6 Fold change | Experiment 2 Fold change (CB1 receptor [2]; AKBA 100 μM): 16.8 Fold change | Experiment 3 Fold change (CB1 receptor [2]; AKBA 100 μM): 12.1 Fold change | Conclusions: Is CB1R antagonist effect observed? (CB1 receptor [2]; AKBA 100 μM, positive allosteric activity, fold change data): Allosterism (An increase of the fold change ≥ 4-fold indicates CB1R positive allosteric agonistic activity) | CB1R antagonistic effect (CB1 receptor [2]; AKBA 5-100 μM, CP55940-stimulated cells): did not show an antagonistic effect
